The molecules below were run against E. coli MurD (Escherichia coli, UniProt P14900) (assay: biochemical). Conditions: 0.25 h, Table S1, PKIS screening; read-out: RA [%] at 100 µM MurD.
Outline: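 Orthophosphate released by E. coli MurD quantified by malachite green (Biomol green) absorbance at 650 nm after 15 min at 37 °C. Residual activity relative to DMSO-only controls.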

E. coli MurD, sequence (P14900 whole entry): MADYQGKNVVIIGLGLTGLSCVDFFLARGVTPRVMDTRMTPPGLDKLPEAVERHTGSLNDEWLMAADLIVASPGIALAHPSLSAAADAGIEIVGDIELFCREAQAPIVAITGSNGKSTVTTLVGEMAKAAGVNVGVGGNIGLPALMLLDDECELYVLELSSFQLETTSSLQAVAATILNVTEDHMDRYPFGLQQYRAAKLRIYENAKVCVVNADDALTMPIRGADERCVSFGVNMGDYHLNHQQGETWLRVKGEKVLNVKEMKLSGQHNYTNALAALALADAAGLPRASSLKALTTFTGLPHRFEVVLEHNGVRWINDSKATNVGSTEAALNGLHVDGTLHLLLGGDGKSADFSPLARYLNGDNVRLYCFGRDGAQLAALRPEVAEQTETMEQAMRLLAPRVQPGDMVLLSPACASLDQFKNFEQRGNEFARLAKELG

Row | SMILES | remaining activity at 100 µM
1 | Fc1ccc(-c2ncn(C3CCNCC3)c2-c2ccnc(Oc3ccc4c(c3)OCO4)n2)cc1 [SB-250715] | 65%
2 | COc1cc(C=NNc2ncnc3c2cnn3-c2ccccc2)ccc1O [GW513184X] | 86%
3 | CCc1cccc(CC)c1/C=C/c1cncc(C(=O)NC)c1 [GW450241X] | 74%
4 | CS(=O)(=O)CCNCc1ccc(-c2ccc3ncnc(Nc4ccc(OCc5ccccc5)c(Br)c4)c3c2)o1 [GW580496A] | 48%
5 | CCOc1ccc2c(-c3ccnc(Nc4cccc(C(F)(F)F)c4)n3)cnn2n1 [GW811761X] | 93%
6 | O=C(NCC1CC1)c1ccc(-c2cccc(C(=O)NC3CC3)c2)cc1 [GW806776X] | 95%
7 | CS(=O)(=O)Nc1ccc(N/C=C2\C(=O)Nc3ccccc32)cc1 [GW278681X] | 89%
8 | COC(=O)Nc1nc2ccc(S(=O)(=O)c3ccc(NC(=O)Nc4cc(C(F)(F)F)ccc4F)cc3)cc2[nH]1 [GW680908A] | 69%
9 | O=S(=O)(CCOCc1ccc(-c2ccc3ncnc(Nc4ccc(OCc5cccc(F)c5)c(Cl)c4)c3c2)o1)c1ccccc1 [GW615311X] | 91%
10 | COc1ccc(-c2ccncc2)cc1C(N)=O [GSK605714A] | 91%
11 | COc1cc(C)c(N(C)C(=O)CN(C)C)cc1Nc1nc(Nc2cccc(F)c2C(N)=O)c2cc[nH]c2n1 [GSK2219385A] | 93%
12 | COc1ccccc1Nc1ncc(-c2ccccc2)o1 [GW577921A] | 84%
13 | CC1=C(C(=O)Nc2ccc3[nH]ncc3c2)C(c2ccc(F)cc2)NC(=O)N1 (stereo not drawn) [GSK180736A] | 79%
14 | O=C1NC(=O)C(c2ccc(Cl)cc2)=C1Nc1ccc(Cl)c(C(=O)O)c1 [SB-360741] | 86%
15 | NS(=O)(=O)c1cccc(-c2ccc3c(NC(=O)C4CC4)n[nH]c3c2)c1 [SB-741905] | 98%
16 | CCCN(CCS(C)(=O)=O)Cc1ccc(-c2ccc3ncnc(Nc4ccc(OCc5cccc(F)c5)c(Cl)c4)c3c2)o1 [GW621823A] | 42%
17 | COC(=O)Nc1nc2ccc(Oc3ccc(NC(=O)Nc4ccccc4)cc3)cc2[nH]1 [GW694590A] | 99%
18 | CC(C)COC(=O)c1ccc2c(c1)/C(=C/Nc1ccc(S(N)(=O)=O)cc1)C(=O)N2 [GW416981X] | 100%
19 | CNC(=O)Oc1cc(C)c(/C=C/c2cncc(C(=O)NC)c2)c(C)c1 [GW432441X] | 69%
20 | O=C1Nc2ccccc2/C1=C/Nc1ccc(-n2cncn2)cc1 [GW301789X] | 91%
21 | CCn1cc(-c2ccnc3[nH]ccc23)c(-c2cccc(NC(=O)Nc3ccc(OCc4ccccc4)cc3)c2)n1 [GSK718429A] | 83%
22 | COc1cc2c(cc1Nc1nc(N3CCc4ccccc43)c3cc[nH]c3n1)N(C(=O)CN(C)C)CC2 [GSK2186269A] | 100%
23 | NS(=O)(=O)c1ccc(N/C=C2\C(=O)Nc3ccc4ncsc4c32)cc1 [GW297361X] | 76%
24 | c1ccc(COc2ccc(Nc3ncnc4ccc(-c5ccco5)cc34)cc2)cc1 [GW284372X] | 80%
25 | COc1ccc(Nc2ncc(-c3ccccc3)o2)cc1OC [GW575533A] | 93%

Each molecule was assayed against E. coli MurC (Escherichia coli, UniProt P17952) (assay: Malachite green inhibition assay, MurC). Conditions: 0.25 h, Table S1, PKIS screening; read-out: RA [%] at 100 µM MurC.
Assay type: biochemical

E. coli MurC, sequence (P17952 whole entry): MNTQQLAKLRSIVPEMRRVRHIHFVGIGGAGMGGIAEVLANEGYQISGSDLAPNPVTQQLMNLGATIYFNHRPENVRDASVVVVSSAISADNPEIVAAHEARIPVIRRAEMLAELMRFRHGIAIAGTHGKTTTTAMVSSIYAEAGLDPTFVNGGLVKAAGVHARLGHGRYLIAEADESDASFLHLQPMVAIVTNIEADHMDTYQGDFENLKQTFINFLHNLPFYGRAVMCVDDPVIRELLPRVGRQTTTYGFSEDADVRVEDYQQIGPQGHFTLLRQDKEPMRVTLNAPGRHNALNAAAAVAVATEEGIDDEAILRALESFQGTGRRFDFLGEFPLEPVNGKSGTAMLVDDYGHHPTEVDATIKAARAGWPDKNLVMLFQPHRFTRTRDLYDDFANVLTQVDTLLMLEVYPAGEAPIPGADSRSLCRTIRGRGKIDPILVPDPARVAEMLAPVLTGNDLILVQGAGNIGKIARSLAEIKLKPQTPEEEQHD

Row | SMILES | remaining activity at 100 µM
26 | COc1cc(C=NNc2ncnc3c2cnn3-c2ccccc2)ccc1O [GW513184X] | 89%
27 | CCc1cccc(CC)c1/C=C/c1cncc(C(=O)NC)c1 [GW450241X] | 67%
28 | CS(=O)(=O)CCNCc1ccc(-c2ccc3ncnc(Nc4ccc(OCc5ccccc5)c(Br)c4)c3c2)o1 [GW580496A] | 95%
29 | CCOc1ccc2c(-c3ccnc(Nc4cccc(C(F)(F)F)c4)n3)cnn2n1 [GW811761X] | 64%
30 | O=C(NCC1CC1)c1ccc(-c2cccc(C(=O)NC3CC3)c2)cc1 [GW806776X] | 84%
31 | CS(=O)(=O)Nc1ccc(N/C=C2\C(=O)Nc3ccccc32)cc1 [GW278681X] | 71%
32 | COC(=O)Nc1nc2ccc(S(=O)(=O)c3ccc(NC(=O)Nc4cc(C(F)(F)F)ccc4F)cc3)cc2[nH]1 [GW680908A] | 77%
33 | O=S(=O)(CCOCc1ccc(-c2ccc3ncnc(Nc4ccc(OCc5cccc(F)c5)c(Cl)c4)c3c2)o1)c1ccccc1 [GW615311X] | 97%
34 | COc1ccc(-c2ccncc2)cc1C(N)=O [GSK605714A] | 86%
35 | COc1ccccc1Nc1ncc(-c2ccccc2)o1 [GW577921A] | 71%
36 | CC1=C(C(=O)Nc2ccc3[nH]ncc3c2)C(c2ccc(F)cc2)NC(=O)N1 (stereo not drawn) [GSK180736A] | 80%
37 | O=C1NC(=O)C(c2ccc(Cl)cc2)=C1Nc1ccc(Cl)c(C(=O)O)c1 [SB-360741] | 84%
38 | NS(=O)(=O)c1cccc(-c2ccc3c(NC(=O)C4CC4)n[nH]c3c2)c1 [SB-741905] | 72%
39 | CCCN(CCS(C)(=O)=O)Cc1ccc(-c2ccc3ncnc(Nc4ccc(OCc5cccc(F)c5)c(Cl)c4)c3c2)o1 [GW621823A] | 36%
40 | COC(=O)Nc1nc2ccc(Oc3ccc(NC(=O)Nc4ccccc4)cc3)cc2[nH]1 [GW694590A] | 62%
41 | CC(C)COC(=O)c1ccc2c(c1)/C(=C/Nc1ccc(S(N)(=O)=O)cc1)C(=O)N2 [GW416981X] | 60%
42 | O=C1Nc2ccccc2/C1=C/Nc1ccc(-n2cncn2)cc1 [GW301789X] | 64%
43 | CCn1cc(-c2ccnc3[nH]ccc23)c(-c2cccc(NC(=O)Nc3ccc(OCc4ccccc4)cc3)c2)n1 [GSK718429A] | 94%
44 | COc1cc2c(cc1Nc1nc(N3CCc4ccccc43)c3cc[nH]c3n1)N(C(=O)CN(C)C)CC2 [GSK2186269A] | 23%
45 | NS(=O)(=O)c1ccc(N/C=C2\C(=O)Nc3ccc4ncsc4c32)cc1 [GW297361X] | 107%
46 | c1ccc(COc2ccc(Nc3ncnc4ccc(-c5ccco5)cc34)cc2)cc1 [GW284372X] | 56%
47 | COc1ccc(Nc2ncc(-c3ccccc3)o2)cc1OC [GW575533A] | 79%

Same assay, conditions: 0.25 h, read-out: RA [%] at 100 µM MurC

Row | SMILES | remaining activity at 100 µM
48 | CNC(=O)Oc1cc(C)c(/C=C/c2cncc(C(=O)NC)c2)c(C)c1 [GW432441X] | 68%

Same assay, conditions: 0.25 h, read-out: RA [%] at 100 µM MurC, Table S1, PKIS screening

Row | SMILES | remaining activity at 100 µM
49 | Fc1ccc(-c2ncn(C3CCNCC3)c2-c2ccnc(Oc3ccc4c(c3)OCO4)n2)cc1 [SB-250715] | 51%
50 | COc1cc(C)c(N(C)C(=O)CN(C)C)cc1Nc1nc(Nc2cccc(F)c2C(N)=O)c2cc[nH]c2n1 [GSK2219385A] | 73%

The molecules below were run against E. coli MurF (Escherichia coli, UniProt P11880) (assay: biochemical). Conditions: 0.25 h, Table S1, PKIS screening; read-out: RA [%] at 100 µM MurF.
E. coli MurF, sequence (P11880 whole entry): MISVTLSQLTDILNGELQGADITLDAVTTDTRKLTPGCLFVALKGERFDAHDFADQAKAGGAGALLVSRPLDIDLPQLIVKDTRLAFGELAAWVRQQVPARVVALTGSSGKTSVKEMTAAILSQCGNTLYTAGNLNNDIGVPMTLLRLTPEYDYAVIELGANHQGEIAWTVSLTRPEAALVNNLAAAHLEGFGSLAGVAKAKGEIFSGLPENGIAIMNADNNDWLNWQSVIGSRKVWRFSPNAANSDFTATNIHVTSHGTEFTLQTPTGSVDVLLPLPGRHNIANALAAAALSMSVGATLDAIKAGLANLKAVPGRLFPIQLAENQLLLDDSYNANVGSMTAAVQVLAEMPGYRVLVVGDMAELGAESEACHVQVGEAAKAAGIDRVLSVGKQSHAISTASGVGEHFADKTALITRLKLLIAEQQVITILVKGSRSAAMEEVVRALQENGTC

Row | SMILES | remaining activity at 100 µM
51 | Fc1ccc(-c2ncn(C3CCNCC3)c2-c2ccnc(Oc3ccc4c(c3)OCO4)n2)cc1 [SB-250715] | 85%
52 | COc1cc(C=NNc2ncnc3c2cnn3-c2ccccc2)ccc1O [GW513184X] | 78%
53 | CCc1cccc(CC)c1/C=C/c1cncc(C(=O)NC)c1 [GW450241X] | 76%
54 | CS(=O)(=O)CCNCc1ccc(-c2ccc3ncnc(Nc4ccc(OCc5ccccc5)c(Br)c4)c3c2)o1 [GW580496A] | 90%
55 | CCOc1ccc2c(-c3ccnc(Nc4cccc(C(F)(F)F)c4)n3)cnn2n1 [GW811761X] | 74%
56 | O=C(NCC1CC1)c1ccc(-c2cccc(C(=O)NC3CC3)c2)cc1 [GW806776X] | 78%
57 | CS(=O)(=O)Nc1ccc(N/C=C2\C(=O)Nc3ccccc32)cc1 [GW278681X] | 77%
58 | COC(=O)Nc1nc2ccc(S(=O)(=O)c3ccc(NC(=O)Nc4cc(C(F)(F)F)ccc4F)cc3)cc2[nH]1 [GW680908A] | 97%
59 | O=S(=O)(CCOCc1ccc(-c2ccc3ncnc(Nc4ccc(OCc5cccc(F)c5)c(Cl)c4)c3c2)o1)c1ccccc1 [GW615311X] | 100%
60 | COc1ccc(-c2ccncc2)cc1C(N)=O [GSK605714A] | 90%
61 | COc1cc(C)c(N(C)C(=O)CN(C)C)cc1Nc1nc(Nc2cccc(F)c2C(N)=O)c2cc[nH]c2n1 [GSK2219385A] | 93%
62 | COc1ccccc1Nc1ncc(-c2ccccc2)o1 [GW577921A] | 76%
63 | CC1=C(C(=O)Nc2ccc3[nH]ncc3c2)C(c2ccc(F)cc2)NC(=O)N1 (stereo not drawn) [GSK180736A] | 85%
64 | O=C1NC(=O)C(c2ccc(Cl)cc2)=C1Nc1ccc(Cl)c(C(=O)O)c1 [SB-360741] | 83%
65 | NS(=O)(=O)c1cccc(-c2ccc3c(NC(=O)C4CC4)n[nH]c3c2)c1 [SB-741905] | 88%
66 | CCCN(CCS(C)(=O)=O)Cc1ccc(-c2ccc3ncnc(Nc4ccc(OCc5cccc(F)c5)c(Cl)c4)c3c2)o1 [GW621823A] | 96%
67 | COC(=O)Nc1nc2ccc(Oc3ccc(NC(=O)Nc4ccccc4)cc3)cc2[nH]1 [GW694590A] | 75%
68 | CC(C)COC(=O)c1ccc2c(c1)/C(=C/Nc1ccc(S(N)(=O)=O)cc1)C(=O)N2 [GW416981X] | 67%
69 | O=C1Nc2ccccc2/C1=C/Nc1ccc(-n2cncn2)cc1 [GW301789X] | 75%
70 | CCn1cc(-c2ccnc3[nH]ccc23)c(-c2cccc(NC(=O)Nc3ccc(OCc4ccccc4)cc3)c2)n1 [GSK718429A] | 99%
71 | COc1cc2c(cc1Nc1nc(N3CCc4ccccc43)c3cc[nH]c3n1)N(C(=O)CN(C)C)CC2 [GSK2186269A] | 26%
72 | NS(=O)(=O)c1ccc(N/C=C2\C(=O)Nc3ccc4ncsc4c32)cc1 [GW297361X] | 86%
73 | c1ccc(COc2ccc(Nc3ncnc4ccc(-c5ccco5)cc34)cc2)cc1 [GW284372X] | 100%
74 | COc1ccc(Nc2ncc(-c3ccccc3)o2)cc1OC [GW575533A] | 71%

Same assay, conditions: 0.25 h, read-out: RA [%] at 100 µM MurF

Row | SMILES | remaining activity at 100 µM
75 | CNC(=O)Oc1cc(C)c(/C=C/c2cncc(C(=O)NC)c2)c(C)c1 [GW432441X] | 87%

— publication PMC6522912, “Evaluation of the published kinase inhibitor set to identify multiple inhibitors of bacterial ATP-dependent mur ligases” (Journal of Enzyme Inhibition and Medicinal Chemistry, 2019)
